Test results as given in US20230120597A1, “CO-AGONISTS AT GLP-1 AND GIP RECEPTORS SUITABLE FOR ORAL DELIVERY” (Novo Nordisk A/S, priority 2020, published 2023).
Marks after values point to notes of the source that are not given here. Starred links: 1 amine or outer side, 2 acyl side, 3 side chain; linkers in the order of their positions; H or OH if unused. Non-standard residues stand in square brackets, D forms with d. Residues, ends and D or L forms follow the SMILES beside them. Groups on a side chain read outwards from the residue. *: point of attachment. C20 diacid = O=C(O)CCCCCCCCCCCCCCCCCCC(=O)*; C18 diacid = O=C(O)CCCCCCCCCCCCCCCCC(=O)*; γGlu = O=C(O)[C@H](CCC(=O)[*:2])N[*:1]; εLys = N[C@@H](CCCCN[*:1])C(=O)[*:2]; AEEA = NCCOCCOCC(=O)O; Aib = CC(C)(N)C(=O)O

Test: Pharmacokinetic study in dogs, oral dosing of tablet compositions with SNAC
Format: in vivo, Beagle dogs
Conditions: dog, in vivo, po
Method: The purpose of this example is to determine the half-life and plasma exposure in vivo of the compounds of the present invention after p.o. administration to beagle dogs, i.e. the terminal half-life and concentration of test substance that reaches circulation with time. This is done in a pharmacokinetic (PK) study, where these parameters of the compound in question are determined. By terminal half-life is generally meant the period of time it takes to halve a certain plasma concentration, measured after the initial distribution phase.
The amount of SNAC in the tablet composition was 100-300 mg, the amount of magnesium stearate in the tablet composition was 7.7 mg, and the target amount of each test substance in the tablet composition was 3-4 mg.
Male beagle dogs, 1-7 years of age and weighing 9-17 kg during the study period, were included in the study. The dogs were dosed in a fasting state. The dogs were group housed in pens (12 hours light: 12 hours dark), and fed individually and restrictedly once daily with Royal Canin Medium Adult dog food (Royal Canin Products, China Branch, or Brogaarden A/S, Denmark). The dogs were used for repeated PK studies with a suitable wash-out period between successive dosing. An appropriate acclimatization period was given prior to initiation of the first PK study. All handling, dosing, and blood sampling of the animals were performed by trained and skilled staff. Before the studies, the dogs were fasted overnight and from 0 to 4 hours after dosing. The dogs were restricted to water 1 hour before dosing until 4 hours after dosing, but otherwise had ad libitum access to water during the whole period.
The compositions were administered by a single oral dosing to the dogs in groups of 6-8 dogs. […] The mouth was then closed, and 10 mL of tap water was given by syringe or gavage to facilitate swallowing of the tablet.
One blood sample was drawn before dosing, and additional samples were drawn at predefined time points after dosing for up to 240 hours, such as up to 10 hours, to adequately cover the full plasma concentration-time absorption profile of the test substance. For each blood sample time point, approximately 0.8 mL of whole blood was collected in a 1.5 mL EDTA-coated tube, which was gently turned to mix the sample with EDTA. Blood samples were collected in EDTA buffer (8 mM) and then centrifuged at 4° C. 2000 g for 10 minutes. Plasma was pipetted into Micronic tubes on dry ice, and kept at −20° C. or lower until analysis. Blood samples were taken as appropriate, for example from a venflon in the cephalic vein in the front leg for the first 2 hours and then with syringe from the jugular vein for the rest of the time points. The first few drops were allowed to drain from the venflon to avoid heparin saline from the venflon in the sample.
All blood samples were collected into test tubes containing EDTA for stabilisation and kept on ice until centrifugation. Plasma was separated from whole blood by centrifugation and the plasma was stored at −20° C. or lower until analysis.
The plasma was analysed for test substance using LC-MS (Liquid Chromatography-Mass Spectrometry) as known to the person skilled in the art. […] RP-HPLC separation was achieved using a linear gradient of 1:1 acetonitrile/methanol in 1% aqueous formic acid using either: a Phenomenex Onyx Monolithic C18 column (50×2.0 mm) and a flow rate of 0.8 mL/min at 30° C.; or an Agilent Poroshell 120 SB-C18 column (50×2.1 mm, 2.7 μm) at a flow rate of 0.4 mL/min at 60° C. The mass spectrometer was operated in either positive ionization SIM mode or positive ionization PRM mode.
For each individual animal, a plasma concentration-time profile was analysed by a non-compartmental model in Pharsight Phoenix WinNonLin ver.
In the case of `CC[C@H](C)[C@H](NC(=O)[C@H](Cc1ccccc1)NC(=O)[C@H](CCC(=O)O)NC(=O)[C@H](CCCNC(=N)N)NC(=O)[C@H](C)NC(=O)[C@H](C)NC(=O)[C@H](CCC(N)=O)NC(=O)[C@H](CCCCNC(=O)COCCOCCNC(=O)COCCOCCNC(=O)CC[C@H](NC(=O)CCCCCCCCCCCCCCCCC(=O)O)C(=O)O)NC(=O)[C@H](CCC(=O)O)NC(=O)[C@H](CC(C)C)NC(=O)[C@H](CC(C)C)NC(=O)[C@@H](NC(=O)[C@H](CO)NC(=O)[C@H](Cc1ccc(O)cc1)NC(=O)[C@H](CC(=O)O)NC(=O)[C@H](CO)NC(=O)[C@@H](NC(=O)[C@H](Cc1ccccc1)NC(=O)[C@@H](NC(=O)CNC(=O)[C@H](CCC(=O)O)NC(=O)C(C)(C)NC(=O)[C@@H](N)Cc1ccc(O)cc1)[C@@H](C)O)[C@@H](C)O)[C@@H](C)CC)C(=O)N[C@@H](CCC(=O)O)C(=O)N[C@@H](Cc1c[nH]c2ccccc12)C(=O)N[C@@H](CC(C)C)C(=O)N[C@@H](CC(C)C)C(=O)N[C@@H](C)C(=O)NCC(=O)NCC(=O)N1CCC[C@H]1C(=O)N[C@@H](CO)C(=O)N[C@@H](CO)C(=O)NCC(=O)N[C@@H](C)C(=O)N1CCC[C@H]1C(=O)N1CCC[C@H]1C(=O)N1CCC[C@H]1C(=O)N[C@@H](CO)C(=O)O` [Compound No. 32] (H-Y[Aib]EGTFTSDYSILLEK([AEEA-AEEA-γGlu-C18 diacid])QAAREFIEWLLAGGPSSGAPPPS-OH; N-terminus assumed), the AUC/Dose is reported as 25.3* kg*h/L.
In the case of `CC[C@H](C)[C@H](NC(=O)[C@H](Cc1ccccc1)NC(=O)[C@H](CCC(=O)O)NC(=O)[C@H](CCC(N)=O)NC(=O)[C@H](C)NC(=O)[C@H](C)NC(=O)[C@H](CCC(N)=O)NC(=O)[C@H](CCCCNC(=O)[C@@H](N)CCCCNC(=O)[C@@H](N)CCCCNC(=O)CC[C@H](NC(=O)CCCCCCCCCCCCCCCCC(=O)O)C(=O)O)NC(=O)[C@H](CCC(=O)O)NC(=O)[C@H](CC(C)C)NC(=O)[C@H](CC(C)C)NC(=O)[C@@H](NC(=O)[C@H](CO)NC(=O)[C@H](Cc1ccc(O)cc1)NC(=O)[C@H](CC(=O)O)NC(=O)[C@H](CO)NC(=O)[C@@H](NC(=O)[C@H](Cc1ccccc1)NC(=O)[C@@H](NC(=O)CNC(=O)[C@H](CCC(=O)O)NC(=O)C(C)(C)NC(=O)[C@@H](N)Cc1ccc(O)cc1)[C@@H](C)O)[C@@H](C)O)[C@@H](C)CC)C(=O)N[C@@H](CC(N)=O)C(=O)N[C@@H](Cc1c[nH]c2ccccc12)C(=O)N[C@@H](CC(C)C)C(=O)N[C@@H](CC(C)C)C(=O)N[C@@H](C)C(=O)NCC(=O)NCC(=O)N1CCC[C@H]1C(=O)N[C@@H](CO)C(=O)N[C@@H](CO)C(=O)NCC(=O)N[C@@H](C)C(=O)N1CCC[C@H]1C(=O)N1CCC[C@H]1C(=O)N1CCC[C@H]1C(=O)N[C@@H](CO)C(=O)O` [Compound No. 24] (H-Y[Aib]EGTFTSDYSILLEK([εLys-εLys-γGlu-C18 diacid])QAAQEFINWLLAGGPSSGAPPPS-OH; N-terminus assumed), the AUC/Dose is reported as 16.4 kg·h/L.
For `CC[C@H](C)[C@H](NC(=O)[C@H](Cc1ccccc1)NC(=O)[C@H](CCC(=O)O)NC(=O)[C@H](Cc1c[nH]cn1)NC(=O)[C@H](C)NC(=O)[C@H](C)NC(=O)[C@H](CCC(N)=O)NC(=O)[C@H](CCCCNC(=O)[C@@H](N)CCCCNC(=O)[C@@H](N)CCCCNC(=O)CC[C@H](NC(=O)CCCCCCCCCCCCCCCCC(=O)O)C(=O)O)NC(=O)[C@H](CCC(=O)O)NC(=O)[C@H](CC(C)C)NC(=O)[C@H](CC(C)C)NC(=O)[C@@H](NC(=O)[C@H](CO)NC(=O)[C@H](Cc1ccc(O)cc1)NC(=O)[C@H](CC(=O)O)NC(=O)[C@H](CO)NC(=O)[C@@H](NC(=O)[C@H](Cc1ccccc1)NC(=O)[C@@H](NC(=O)CNC(=O)[C@H](CCC(=O)O)NC(=O)C(C)(C)NC(=O)[C@@H](N)Cc1ccc(O)cc1)[C@@H](C)O)[C@@H](C)O)[C@@H](C)CC)C(=O)N[C@@H](CCC(=O)O)C(=O)N[C@@H](Cc1c[nH]c2ccccc12)C(=O)N[C@@H](CC(C)C)C(=O)N[C@@H](CC(C)C)C(=O)N[C@@H](C)C(=O)NCC(=O)NCC(=O)N1CCC[C@H]1C(=O)N[C@@H](CO)C(=O)N[C@@H](CO)C(=O)NCC(=O)N[C@@H](C)C(=O)N1CCC[C@H]1C(=O)N1CCC[C@H]1C(=O)N1CCC[C@H]1C(=O)N[C@@H](CO)C(=O)O` [Compound No. 30] (H-Y[Aib]EGTFTSDYSILLEK([εLys-εLys-γGlu-C18 diacid])QAAHEFIEWLLAGGPSSGAPPPS-OH; N-terminus assumed), the AUC/Dose was 6.5 kg·h/L.
With `CC[C@H](C)[C@H](NC(=O)[C@H](Cc1ccccc1)NC(=O)[C@H](CCC(=O)O)NC(=O)[C@H](CCCNC(=N)N)NC(=O)[C@H](C)NC(=O)[C@H](C)NC(=O)[C@H](CCC(N)=O)NC(=O)[C@H](CCCCNC(=O)[C@@H](N)CCCCNC(=O)[C@@H](N)CCCCNC(=O)CC[C@H](NC(=O)CCCCCCCCCCCCCCCCCCC(=O)O)C(=O)O)NC(=O)[C@H](CCC(=O)O)NC(=O)[C@H](CC(C)C)NC(=O)[C@H](Cc1ccc(O)cc1)NC(=O)[C@@H](NC(=O)[C@H](CO)NC(=O)[C@H](Cc1ccc(O)cc1)NC(=O)[C@H](CC(=O)O)NC(=O)[C@H](CO)NC(=O)[C@@H](NC(=O)[C@H](Cc1ccccc1)NC(=O)[C@@H](NC(=O)CNC(=O)[C@H](CCC(=O)O)NC(=O)C(C)(C)NC(=O)[C@@H](N)Cc1ccc(O)cc1)[C@@H](C)O)[C@@H](C)O)[C@@H](C)CC)C(=O)N[C@@H](CC(N)=O)C(=O)N[C@@H](Cc1c[nH]c2ccccc12)C(=O)N[C@@H](CC(C)C)C(=O)N[C@@H](CC(C)C)C(=O)N[C@@H](C)C(=O)NCC(=O)NCC(=O)N1CCC[C@H]1C(=O)N[C@@H](CO)C(=O)N[C@@H](CO)C(=O)NCC(=O)N[C@@H](C)C(=O)N1CCC[C@H]1C(=O)N1CCC[C@H]1C(=O)N1CCC[C@H]1C(=O)N[C@@H](CO)C(=O)O` [Compound No. 16] (H-Y[Aib]EGTFTSDYSIYLEK([εLys-εLys-γGlu-C20 diacid])QAAREFINWLLAGGPSSGAPPPS-OH) the AUC/Dose was 8.6 kg·h/L.
In the case of `CC[C@H](C)[C@H](NC(=O)[C@H](Cc1ccccc1)NC(=O)[C@H](CCC(=O)O)NC(=O)[C@H](CCC(N)=O)NC(=O)[C@H](C)NC(=O)[C@H](C)NC(=O)[C@H](CCC(N)=O)NC(=O)[C@H](CCCCNC(=O)[C@@H](N)CCCCNC(=O)[C@@H](N)CCCCNC(=O)CC[C@H](NC(=O)CCCCCCCCCCCCCCCCC(=O)O)C(=O)O)NC(=O)[C@H](CCC(=O)O)NC(=O)[C@H](CC(C)C)NC(=O)[C@H](CC(C)C)NC(=O)[C@@H](NC(=O)[C@H](CO)NC(=O)[C@H](Cc1ccc(O)cc1)NC(=O)[C@H](CC(=O)O)NC(=O)[C@H](CO)NC(=O)[C@@H](NC(=O)[C@H](Cc1ccccc1)NC(=O)[C@@H](NC(=O)CNC(=O)[C@H](CCC(=O)O)NC(=O)C(C)(C)NC(=O)[C@@H](N)Cc1ccc(O)cc1)[C@@H](C)O)[C@@H](C)O)[C@@H](C)CC)C(=O)N[C@@H](CCC(=O)O)C(=O)N[C@@H](Cc1c[nH]c2ccccc12)C(=O)N[C@@H](CC(C)C)C(=O)N[C@@H](CC(C)C)C(=O)N[C@@H](C)C(=O)NCC(=O)NCC(=O)N1CCC[C@H]1C(=O)N[C@@H](CO)C(=O)N[C@@H](CO)C(=O)NCC(=O)N[C@@H](C)C(=O)N1CCC[C@H]1C(=O)N1CCC[C@H]1C(=O)N1CCC[C@H]1C(=O)N[C@@H](CO)C(=O)O` [Compound No. 29] (H-Y[Aib]EGTFTSDYSILLEK([εLys-εLys-γGlu-C18 diacid])QAAQEFIEWLLAGGPSSGAPPPS-OH), the AUC/Dose is reported as 16.6** kg*h/L.
